Test results published in patent publication US20030083376A1, “Depot preparations” (priority 2001, published 2003).

Tests used:
Type in all cases: physicochemical
[1] = Hydrolysis rate in 1% strength aqueous soap solution, SPME headspace analysis
Method: To determine the hydrolysis rate, the depot preparation was added to a 1% strength aqueous soap solution, and the concentration of the depot preparation or of the free aldehyde was measured by SPME headspace analysis.

[2] = Storage stability in soap; details: stored in the dark for about one month at room temperature
From the text: (§1) The separate samples are then divided into portions.
The soap formulation below can be prepared in accordance with generally known methods. The data refer to percentages by weight.
The soap formulations A and B were stored in the dark for about one month at room temperature.

[3] = Storage stability in powder laundry detergent; details: after one month
From the text: as §1

| time to complete hydrolysis [1] [min] | Storage stability [%] [2] [%] | storage stability relative to the corresponding aldehyde [2] | storage stability [3] [%] | SMILES |
| --- | --- | --- | --- | --- |
| ≤ 5 | 93 | significantly greater storage stability | 93 | CCCCCCC(OCCc1ccccc1)OC(C)=O (centres unmarked) [Example 5, 1-(2-Phenylethoxy)heptyl Acetate] |
|  | 91 |  | 91 | OCCc1ccccc1 [Phenylethyl alcohol, 2-Phenylethanol] |
|  | 27 |  | 27 | CCCCCCC=O [Aldehyde C7, n-Heptanal] |
